Measured values as given in ChEMBL document CHEMBL5252598, “Armeniaspirol analogues disrupt the electrical potential (ΔΨ) of the proton motive force” (Bioorg Med Chem Lett, 2023).
Converted amounts (≈) assume the structure as drawn. The source made the active and inactive calls. No cut-off for these calls is given here.

Legend:
Escherichia coli [1] = assay: Antagonistic antibacterial activity against Escherichia coli harbouring TolC-deficient mutant assessed as fractional inhibitory concentration in presence of kanamycin by checker board assay; assay type: functional
Cell membrane [2] = assay: Induction of membrane depolarization in methicillin-resistant Staphylococcus aureus USA300 assessed as disruption of transmembrane electrical potential by DiSC3(5) dye-based fluorescence assay
Staphylococcus aureus = assay: Antibacterial activity against Staphylococcus aureus USA300 assessed as bacterial growth inhibition by checkerboard assay; assay type: functional
Escherichia coli [3] = assay: Antibacterial activity against Escherichia coli harbouring TolC-deficient mutant assessed as fractional inhibitory concentration in presence of tetracycline by checker board assay; assay type: functional
Cell membrane [4] = assay: Induction of membrane depolarization in methicillin-resistant Staphylococcus aureus USA300 assessed as measuring minimum effective concentration by DiSC3(5) dye-based fluorescence assay
Cell membrane [5] = assay: Induction of membrane depolarization in methicillin-resistant Staphylococcus aureus USA300 by […] dye-based fluorescence assay; assay type: subcellular
Bacteria [6] = assay: Inhibition of ATP-dependent ClpYQ proteases (unknown origin)
Bacteria [7] = assay: Inhibition of ATP-dependent ClpXP proteases (unknown origin)
Cell membrane [8] = assay: Induction of membrane depolarization in methicillin-resistant Staphylococcus aureus USA300 assessed as disruption of transmembrane proton gradient by DiSC3(5) dye-based fluorescence assay

Compound: CCCCCCc1c(O)c(Cl)cc2c1OC1(C2=O)C(Cl)=C(Cl)C(=O)N1C (stereo not drawn)
- FIC (Escherichia coli [1]): >4
- Activity (Cell membrane [2]): Active
- MIC (Staphylococcus aureus): 4 µg/mL
- FIC (Escherichia coli [3]): 0.656
- MEC (Cell membrane [4]): 0.5 µg/mL
- EC50 (Cell membrane [5]): 0.42 µg/mL (≈ 1 µM)

Compound: CCCCCCc1c(OC)c(Cl)cc2c1OC1(C2)NC(=O)C(Cl)=C1Cl (stereo not drawn)
- Activity (Cell membrane [2]): Active

Compound: CCCCCCc1c(O)c(Cl)cc2c1OC1(C2=O)C(Cl)=C(Cl)C(=O)N1Cc1ccc(C(F)(F)F)cc1 (stereo not drawn)
- MIC (Staphylococcus aureus): 2 µg/mL
- MEC (Cell membrane [4]): 0.125 µg/mL
- EC50 (Cell membrane [5]): 0.3 µg/mL (≈ 0.533 µM)

Compound: C=CCN1C(=O)C(Cl)=C(Cl)C12Oc1c(cc(Cl)c(O)c1CCCCCC)C2=O (stereo not drawn)
- MIC (Staphylococcus aureus): 4 µg/mL
- MEC (Cell membrane [4]): 0.25 µg/mL
- EC50 (Cell membrane [5]): 0.23 µg/mL (≈ 0.517 µM)

Compound: Cc1c(O)c(Cl)cc2c1OC1(C2=O)C(Cl)=C(Cl)C(=O)N1Cc1ccccc1 (stereo not drawn)
- MIC (Staphylococcus aureus): 32 µg/mL
- MEC (Cell membrane [4]): 4 µg/mL
- EC50 (Cell membrane [5]): 3.2 µg/mL (≈ 7.54 µM)

Compound: CC(C)[C@@H]1NC(=O)[C@H](C)OC(=O)[C@@H](C(C)C)NC(=O)[C@@H](C(C)C)OC(=O)[C@H](C(C)C)NC(=O)[C@H](C)OC(=O)[C@@H](C(C)C)NC(=O)[C@@H](C(C)C)OC(=O)[C@H](C(C)C)NC(=O)[C@H](C)OC(=O)[C@@H](C(C)C)NC(=O)[C@@H](C(C)C)OC1=O
- Activity (Cell membrane [2]): Active

Compound: CCCCCCc1c(OC)c(Cl)cc2c1OC1(C2=O)C(Cl)=C(Cl)C(=O)N1CCCCCC (stereo not drawn)
- inhibition (Bacteria [6]): inactive
- MIC (Staphylococcus aureus): 4 µg/mL
- MEC (Cell membrane [4]): 0.125 µg/mL
- EC50 (Cell membrane [5]): 0.54 µg/mL (≈ 1.07 µM)
- inhibition (Bacteria [7]): inactive

Compound: CCCCCCc1c(OC)c(Cl)cc2c1OC1(C2=O)C(Cl)=C(Cl)C(=O)N1C (stereo not drawn)
- MIC (Staphylococcus aureus): > 32 µg/mL
- MEC (Cell membrane [4]): 4 µg/mL
- EC50 (Cell membrane [5]): 2.04 µg/mL (≈ 4.71 µM)

Compound: CCCCCCc1c(O)c(Cl)cc2c1OC1(C2=O)C(Cl)=C(Cl)C(=O)N1Cc1ccccc1 (stereo not drawn)
- MIC (Staphylococcus aureus): 1 µg/mL
- MEC (Cell membrane [4]): 0.5 µg/mL
- EC50 (Cell membrane [5]): 0.39 µg/mL (≈ 0.788 µM)

Compound: Cc1c(O)c(Cl)cc2c1OC1(C2=O)C(Cl)=C(Cl)C(=O)N1Cc1ccc(C(F)(F)F)cc1 (stereo not drawn)
- MIC (Staphylococcus aureus): 16 µg/mL
- MEC (Cell membrane [4]): 2 µg/mL
- EC50 (Cell membrane [5]): 2.45 µg/mL (≈ 4.97 µM)

Compound: CCCCCCc1c(O)c(Cl)cc2c1OC1(C2=O)C(Cl)=C(Cl)C(=O)N1Cc1ccc(C)cc1 (stereo not drawn)
- FIC (Escherichia coli [1]): >4
- MIC (Staphylococcus aureus): 0.5 µg/mL
- MEC (Cell membrane [4]): 0.125 µg/mL
- EC50 (Cell membrane [5]): 0.07 µg/mL (≈ 0.138 µM)

Compound: CCCCCCc1c(O)c(Cl)cc2c1OC1(C2=O)C(Cl)=C(Cl)C(=O)N1CCCCCC (stereo not drawn)
- FIC (Escherichia coli [1]): >4
- MIC (Staphylococcus aureus): 1 µg/mL
- MEC (Cell membrane [4]): 0.0312 µg/mL
- EC50 (Cell membrane [5]): 0.07 µg/mL (≈ 0.143 µM)

Compound: CCCCCCc1c(O)c(Cl)cc2c1OC1(C2=O)C(Cl)=C(Cl)C(=O)N1CCc1ccccc1 (stereo not drawn)
- MIC (Staphylococcus aureus): 0.5 µg/mL
- MEC (Cell membrane [4]): 0.125 µg/mL
- EC50 (Cell membrane [5]): 0.12 µg/mL (≈ 0.236 µM)

Compound: CCCCCCCCCCCCN1C(=O)C(Cl)=C(Cl)C12Oc1c(cc(Cl)c(O)c1C)C2=O (stereo not drawn)
- MIC (Staphylococcus aureus): 1 µg/mL
- MEC (Cell membrane [4]): 0.25 µg/mL
- EC50 (Cell membrane [5]): 0.28 µg/mL (≈ 0.557 µM)

Compound: CCCCCCCCCCCCN1C(=O)C(Cl)=C(Cl)C12Oc1c(cc(Cl)c(O)c1CCCCCC)C2=O (stereo not drawn)
- MIC (Staphylococcus aureus): 16 µg/mL
- MEC (Cell membrane [4]): > 1 µg/mL
- EC50 (Cell membrane [5]): > 8 µg/mL

Compound: Cc1c(O)c(Cl)cc2c1OC1(C2=O)C(Cl)=C(Cl)C(=O)N1C (stereo not drawn)
- MIC (Staphylococcus aureus): > 32 µg/mL
- MEC (Cell membrane [4]): 8 µg/mL
- EC50 (Cell membrane [5]): > 8 µg/mL

Compound: C=CCN1C(=O)C(Cl)=C(Cl)C12Oc1c(cc(Cl)c(O)c1C)C2=O (stereo not drawn)
- MIC (Staphylococcus aureus): > 32 µg/mL
- MEC (Cell membrane [4]): 8 µg/mL
- EC50 (Cell membrane [5]): > 8 µg/mL

Compound: CO[C@@H]1C[C@@H](C[C@H]2CC[C@H](C)[C@H]([C@@H](C)C(=O)O)O2)O[C@]2(O[C@](C)([C@H]3CC[C@@](C)([C@@H]4O[C@@H]([C@H]5O[C@@](O)(CO)[C@H](C)C[C@@H]5C)C[C@@H]4C)O3)C[C@H]2C)[C@@H]1C
- Activity (Cell membrane [8]): Active

Compound: CCCCCCN1C(=O)C(Cl)=C(Cl)C12Oc1c(cc(Cl)c(O)c1C)C2=O (stereo not drawn)
- MIC (Staphylococcus aureus): 4 µg/mL
- MEC (Cell membrane [4]): 0.5 µg/mL
- EC50 (Cell membrane [5]): 0.17 µg/mL (≈ 0.406 µM)
